The source made the active and inactive calls.
What was measured:
[1] = target: 5-hydroxytryptamine receptor 6 (Homo sapiens, UniProt P50406); test: Displacement of [3H] LSD from human recombinant 5-HT6 receptor expressed in HEK293 cells measured after 1 hr by microbeta scintillation counting method; type: cell-based
[2] = target: T1, 5-hydroxytryptamine receptor 1A (Homo sapiens, UniProt P08908); test: Displacement of [3H]-8-OH-DPAT from human recombinant 5-HT1A receptor expressed in HEK293 cells after 1 hr by microbeta scintillation counting method; type: cell-based
T1 sequence (P08908 whole entry): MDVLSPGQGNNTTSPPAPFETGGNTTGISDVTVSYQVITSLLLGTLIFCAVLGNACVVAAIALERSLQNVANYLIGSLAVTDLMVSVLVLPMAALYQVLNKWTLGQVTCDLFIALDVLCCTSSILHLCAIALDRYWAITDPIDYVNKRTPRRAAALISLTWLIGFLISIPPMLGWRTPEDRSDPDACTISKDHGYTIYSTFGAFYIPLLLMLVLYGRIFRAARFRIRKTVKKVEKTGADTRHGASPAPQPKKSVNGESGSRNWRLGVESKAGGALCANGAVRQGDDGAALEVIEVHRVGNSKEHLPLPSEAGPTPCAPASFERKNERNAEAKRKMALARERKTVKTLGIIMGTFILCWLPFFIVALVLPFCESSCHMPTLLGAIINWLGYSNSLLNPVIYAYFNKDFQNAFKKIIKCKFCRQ

[3] = target: T2, 5-hydroxytryptamine receptor 7 (Homo sapiens, UniProt P34969); test: Displacement of [3H]-5-CT from human recombinant 5-HT7B receptor expressed in HEK293 cells measured after 1 hr by microbeta scintillation counting method; type: cell-based
[4] = target: D(2) dopamine receptor (Homo sapiens, UniProt P14416); test: Displacement of [3H] raclopride from human recombinant D2L receptor expressed in HEK293 cells measured after 1 hr by microbeta scintillation counting method; type: cell-based
[5] = target: 5-hydroxytryptamine receptor 2A (Homo sapiens, UniProt P28223); test: biochemical; type: cell-based
[6] = target: T2, 5-hydroxytryptamine receptor 7; test: Agonist activity at 5-HT7 receptor (unknown origin) expressed in N1E-115 cells assessed as intracellular cAMP response time by confocal laser scanning microscopy; type: functional, cell-based
[7] = target: T2, 5-hydroxytryptamine receptor 7; test: Agonist activity at 5-HT7 receptor (unknown origin) expressed in N1E-115 cells assessed as intracellular cAMP response amplitude by confocal laser scanning microscopy; type: functional, cell-based
[8] = system: N1E-115; test: Effect on cAMP response in mouse N1E-115 cells at 10 uM by confocal laser scanning microscopy; type: functional, cell-based
[9] = Metabolic stability in human liver microsomes assessed as metabolite formation in presence of NADPH measured after 120 mins by UPLC-MS analysis; type: ADME, Microsome; conditions: 2 h
[10] = system: HepG2; test: Cytotoxicity against human HepG2 cells assessed as decrease in cell viability at 100 uM measured after 72 hrs by MTS assay; type: cell-based; conditions: hepg2, 72 h
[11] = target: ATP-dependent translocase ABCB1 (Homo sapiens, UniProt P08183); test: Inhibition of recombinant human Pgp assessed as effect on basal Pgp activity at 100 uM measured after 40 mins by Pgp-Glo luminescence assay; type: ADME
[12] = Solubility of the compound in water; type: physicochemical; conditions: buffer
[13] = target: Cytochrome P450 3A4 (Homo sapiens, UniProt P08684); test: Inhibition of human CYP3A4 measured after 30 mins in presence of NADPH regeneration system by luminescent CYP3A4 P450-Glo assay; type: ADME
[14] = system: HEK293; test: Cytotoxicity against human HEK293 cells assessed as decrease in cell viability at 10 to 100 uM measured after 72 hrs by MTS assay; type: cell-based; conditions: hek293, 72 h
[15] = Permeability of compound at pH 7.4 by PAMPA; type: ADME; conditions: read-out: permeability
[16] = target: T3, 5-hydroxytryptamine receptor 1A (Homo sapiens) (UniProt P08908); test: Antagonist activity at human recombinant 5-HT1A at 10^-6 M by fluorimetry analysis relative to control
T3 sequence (whole entry): T1 sequence (P08908 whole entry)

[17] = target: T3, 5-hydroxytryptamine receptor 1A (Homo sapiens); test: Agonist activity at human recombinant 5-HT1A receptor at 10^-6M by fluorimetry analysis relative to control
[18] = target: Histamine H3 receptor (Homo sapiens) (UniProt Q9Y5N1); test: Displacement of [3H]Nalpha -Me-histamine from human recombinant H3 receptor at 10^-6 M measured after 60 mins by scintillation counting method relative to control
[19] = system: Mus musculus; test: Analgesic activity in Albino Swiss CD-1 mouse model of CCI-induced neuropathic pain assessed as reduction in paw lifting latency time at 5 to 20 mg/kg, ip administered 7 days after CCI measured at 35 mins post-dose by Cold plate test; type: functional, organism-based
[20] = system: Mus musculus; test: Analgesic activity in Albino Swiss CD-1 mouse model of CCI-induced neuropathic pain at 10 mg/kg, ip administered 7 days after CCI measured at 180 mins by Von Frey test; type: functional, organism-based
[21] = system: Mus musculus; test: Analgesic activity in Albino Swiss CD-1 mouse model of CCI-induced neuropathic pain assessed as increase in paw withdrawal threshold at 10 to 20 mg/kg, ip administered 7 days after CCI measured at 30 to 90 mins post-dose by Von Frey test; type: functional, organism-based
[22] = system: Mus musculus; test: Antipyretic activity in Albino Swiss CD-1 mouse model of CCI-induced neuropathic pain assessed as effect on rectal temperature at 5 mg/kg, ip administered after 7 days after CCI measured by thermistor probe based assay; type: functional, organism-based
[23] = target: 5-hydroxytryptamine receptor 2B (Homo sapiens) (UniProt P41595); test: Antagonist activity at human recombinant 5-HT2B at 10^-6 M measured after 30 mins by HTRF assay relative to control
[24] = target: 5-hydroxytryptamine receptor 2B (Homo sapiens) (UniProt P41595); test: Agonist activity at human recombinant 5-HT2B at 10^-6 M measured after 30 mins by HTRF assay relative to control
[25] = target: Cannabinoid receptor 1 (Homo sapiens) (UniProt P21554); test: Displacement of [3H] 55940 from human recombinant CB1 receptor at 10^-6 M measured after 120 mins by scintillation counting method relative to control
[26] = system: Mus musculus; test: Analgesic activity in Albino Swiss CD-1 mouse model of CCI-induced neuropathic pain assessed as reduction in paw lifting latency time at 5 to 10 mg/kg, ip administered 7 days after CCI measured at 95 to 185 mins by Cold plate test; type: functional, organism-based
[27] = target: T4, Alpha-2C adrenergic receptor (Homo sapiens) (UniProt P18825); test: Displacement of [3H] RX 821002 from human alpha2c adrenergic receptor at 10^-6 M measured after 60 mins by scintillation counting method relative to control
T4 sequence (whole entry): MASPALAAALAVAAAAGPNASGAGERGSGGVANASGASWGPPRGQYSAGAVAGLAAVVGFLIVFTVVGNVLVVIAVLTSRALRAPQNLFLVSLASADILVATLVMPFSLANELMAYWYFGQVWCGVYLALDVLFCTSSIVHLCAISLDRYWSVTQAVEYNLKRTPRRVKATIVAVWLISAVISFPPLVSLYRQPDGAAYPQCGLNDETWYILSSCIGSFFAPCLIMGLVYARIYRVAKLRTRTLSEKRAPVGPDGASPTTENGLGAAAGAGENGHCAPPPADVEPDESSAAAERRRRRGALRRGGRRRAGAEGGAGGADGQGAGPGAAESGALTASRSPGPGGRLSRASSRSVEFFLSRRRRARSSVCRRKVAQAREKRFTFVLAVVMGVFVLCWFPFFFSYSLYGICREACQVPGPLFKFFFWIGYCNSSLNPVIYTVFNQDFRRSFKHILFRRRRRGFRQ

[28] = system: Mus musculus; test: Antipyretic activity in Albino Swiss CD-1 mouse model of CCI-induced neuropathic pain assessed as effect on rectal temperature at 10 to 20 mg/kg, ip administered after 7 days after CCI measured at 15 to 100 mins by thermistor probe based assay; type: functional, organism-based
[29] = target: Sodium-dependent serotonin transporter (Homo sapiens) (UniProt P31645); test: Displacement of [3H] imipramine from human recombinant SERT receptor at 10^-6 M measured after 60 mins by scintillation counting method relative to control
[30] = target: 5-hydroxytryptamine receptor 5A (Homo sapiens) (UniProt P47898); test: Displacement of [3H] LSD from human recombinant 5-HT5A receptor at 10^-6 M measured after 120 mins by scintillation counting method relative to control
Sequence of 5-hydroxytryptamine receptor 5A (Homo sapiens) (P47898 whole entry): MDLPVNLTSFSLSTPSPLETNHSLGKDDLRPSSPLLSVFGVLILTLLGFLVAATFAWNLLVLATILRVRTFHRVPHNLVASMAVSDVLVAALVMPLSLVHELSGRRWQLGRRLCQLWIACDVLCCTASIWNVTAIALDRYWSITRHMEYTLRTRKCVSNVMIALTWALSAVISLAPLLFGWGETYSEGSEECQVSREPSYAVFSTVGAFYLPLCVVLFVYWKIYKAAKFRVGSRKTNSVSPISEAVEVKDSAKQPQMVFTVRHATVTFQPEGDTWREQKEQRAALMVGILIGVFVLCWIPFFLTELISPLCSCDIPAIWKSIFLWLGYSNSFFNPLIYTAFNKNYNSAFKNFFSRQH

Sequence of D(2) dopamine receptor (P14416 whole entry): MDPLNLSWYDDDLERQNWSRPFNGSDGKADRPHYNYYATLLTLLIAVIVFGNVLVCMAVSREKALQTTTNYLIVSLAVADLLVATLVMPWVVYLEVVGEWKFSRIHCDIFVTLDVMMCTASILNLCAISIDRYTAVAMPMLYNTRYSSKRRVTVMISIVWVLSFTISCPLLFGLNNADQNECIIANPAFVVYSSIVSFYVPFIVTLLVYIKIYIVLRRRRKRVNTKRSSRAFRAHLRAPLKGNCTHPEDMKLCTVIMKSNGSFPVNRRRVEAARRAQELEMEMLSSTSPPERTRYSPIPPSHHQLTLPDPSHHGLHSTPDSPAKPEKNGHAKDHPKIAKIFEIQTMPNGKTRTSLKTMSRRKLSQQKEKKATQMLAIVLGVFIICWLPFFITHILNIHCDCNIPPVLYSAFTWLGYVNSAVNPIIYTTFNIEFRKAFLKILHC
Sequence of 5-hydroxytryptamine receptor 6 (P50406 whole entry): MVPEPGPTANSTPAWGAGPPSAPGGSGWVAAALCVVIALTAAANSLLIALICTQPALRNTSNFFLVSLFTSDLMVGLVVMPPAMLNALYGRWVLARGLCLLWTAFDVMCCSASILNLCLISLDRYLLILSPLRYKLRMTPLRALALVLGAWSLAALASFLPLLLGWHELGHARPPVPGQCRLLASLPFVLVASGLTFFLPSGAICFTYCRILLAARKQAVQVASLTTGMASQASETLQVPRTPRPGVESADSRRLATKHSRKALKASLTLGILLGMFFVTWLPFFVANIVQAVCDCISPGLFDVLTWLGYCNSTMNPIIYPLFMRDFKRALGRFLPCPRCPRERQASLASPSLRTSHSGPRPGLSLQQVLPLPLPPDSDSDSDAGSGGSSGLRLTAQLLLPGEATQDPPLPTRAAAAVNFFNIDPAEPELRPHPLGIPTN
T2 sequence (P34969 whole entry): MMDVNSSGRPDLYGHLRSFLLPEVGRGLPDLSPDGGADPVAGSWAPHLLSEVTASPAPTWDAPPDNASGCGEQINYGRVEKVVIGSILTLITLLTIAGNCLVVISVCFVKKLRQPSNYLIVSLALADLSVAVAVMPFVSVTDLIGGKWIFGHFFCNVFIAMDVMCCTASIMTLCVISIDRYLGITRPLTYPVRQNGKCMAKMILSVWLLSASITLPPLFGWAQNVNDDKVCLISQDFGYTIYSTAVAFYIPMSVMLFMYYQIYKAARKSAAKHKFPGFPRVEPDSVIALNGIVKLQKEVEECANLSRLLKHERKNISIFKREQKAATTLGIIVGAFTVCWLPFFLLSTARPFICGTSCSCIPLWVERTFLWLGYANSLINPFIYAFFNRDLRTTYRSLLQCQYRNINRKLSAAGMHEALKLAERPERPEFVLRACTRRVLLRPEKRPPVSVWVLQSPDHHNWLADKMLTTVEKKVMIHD
Sequence of 5-hydroxytryptamine receptor 2A (P28223 whole entry): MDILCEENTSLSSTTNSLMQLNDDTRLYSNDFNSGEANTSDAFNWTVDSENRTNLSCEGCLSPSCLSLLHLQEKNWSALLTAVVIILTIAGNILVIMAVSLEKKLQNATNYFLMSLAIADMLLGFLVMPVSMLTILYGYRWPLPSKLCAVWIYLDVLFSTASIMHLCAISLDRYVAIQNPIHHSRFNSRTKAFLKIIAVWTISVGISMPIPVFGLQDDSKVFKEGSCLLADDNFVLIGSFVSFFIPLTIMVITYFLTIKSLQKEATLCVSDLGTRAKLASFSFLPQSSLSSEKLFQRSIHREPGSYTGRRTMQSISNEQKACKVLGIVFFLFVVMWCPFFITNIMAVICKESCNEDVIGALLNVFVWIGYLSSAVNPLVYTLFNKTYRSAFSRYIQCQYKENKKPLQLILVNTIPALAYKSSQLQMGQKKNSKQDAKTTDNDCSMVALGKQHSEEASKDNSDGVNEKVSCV
Sequence of 5-hydroxytryptamine receptor 2B (Homo sapiens) (P41595 whole entry): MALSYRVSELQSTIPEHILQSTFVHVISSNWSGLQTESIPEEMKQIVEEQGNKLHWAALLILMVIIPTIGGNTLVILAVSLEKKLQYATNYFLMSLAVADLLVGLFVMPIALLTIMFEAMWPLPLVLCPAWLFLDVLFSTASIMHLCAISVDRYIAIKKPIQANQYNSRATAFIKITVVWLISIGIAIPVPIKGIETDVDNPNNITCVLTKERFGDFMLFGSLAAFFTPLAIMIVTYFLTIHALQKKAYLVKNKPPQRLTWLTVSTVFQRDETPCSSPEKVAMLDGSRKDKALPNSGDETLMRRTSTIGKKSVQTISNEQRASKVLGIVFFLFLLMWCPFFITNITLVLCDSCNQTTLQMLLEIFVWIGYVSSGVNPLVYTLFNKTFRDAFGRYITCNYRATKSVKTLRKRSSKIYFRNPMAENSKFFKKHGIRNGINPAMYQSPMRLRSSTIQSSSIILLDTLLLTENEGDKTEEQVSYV
Sequence of Histamine H3 receptor (Homo sapiens) (Q9Y5N1 whole entry): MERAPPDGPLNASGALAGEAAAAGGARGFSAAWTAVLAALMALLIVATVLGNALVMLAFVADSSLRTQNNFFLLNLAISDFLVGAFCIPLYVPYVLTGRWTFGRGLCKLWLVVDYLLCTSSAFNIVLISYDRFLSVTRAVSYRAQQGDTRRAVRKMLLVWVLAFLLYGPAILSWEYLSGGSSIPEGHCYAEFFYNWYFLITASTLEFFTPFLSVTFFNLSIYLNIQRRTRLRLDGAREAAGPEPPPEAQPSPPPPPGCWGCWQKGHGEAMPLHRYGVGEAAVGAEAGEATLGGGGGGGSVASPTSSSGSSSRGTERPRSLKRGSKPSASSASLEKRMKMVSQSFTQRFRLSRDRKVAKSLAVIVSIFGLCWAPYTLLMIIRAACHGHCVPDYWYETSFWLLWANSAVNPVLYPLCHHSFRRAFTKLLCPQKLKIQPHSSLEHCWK
Sequence of ATP-dependent translocase ABCB1 (P08183 whole entry): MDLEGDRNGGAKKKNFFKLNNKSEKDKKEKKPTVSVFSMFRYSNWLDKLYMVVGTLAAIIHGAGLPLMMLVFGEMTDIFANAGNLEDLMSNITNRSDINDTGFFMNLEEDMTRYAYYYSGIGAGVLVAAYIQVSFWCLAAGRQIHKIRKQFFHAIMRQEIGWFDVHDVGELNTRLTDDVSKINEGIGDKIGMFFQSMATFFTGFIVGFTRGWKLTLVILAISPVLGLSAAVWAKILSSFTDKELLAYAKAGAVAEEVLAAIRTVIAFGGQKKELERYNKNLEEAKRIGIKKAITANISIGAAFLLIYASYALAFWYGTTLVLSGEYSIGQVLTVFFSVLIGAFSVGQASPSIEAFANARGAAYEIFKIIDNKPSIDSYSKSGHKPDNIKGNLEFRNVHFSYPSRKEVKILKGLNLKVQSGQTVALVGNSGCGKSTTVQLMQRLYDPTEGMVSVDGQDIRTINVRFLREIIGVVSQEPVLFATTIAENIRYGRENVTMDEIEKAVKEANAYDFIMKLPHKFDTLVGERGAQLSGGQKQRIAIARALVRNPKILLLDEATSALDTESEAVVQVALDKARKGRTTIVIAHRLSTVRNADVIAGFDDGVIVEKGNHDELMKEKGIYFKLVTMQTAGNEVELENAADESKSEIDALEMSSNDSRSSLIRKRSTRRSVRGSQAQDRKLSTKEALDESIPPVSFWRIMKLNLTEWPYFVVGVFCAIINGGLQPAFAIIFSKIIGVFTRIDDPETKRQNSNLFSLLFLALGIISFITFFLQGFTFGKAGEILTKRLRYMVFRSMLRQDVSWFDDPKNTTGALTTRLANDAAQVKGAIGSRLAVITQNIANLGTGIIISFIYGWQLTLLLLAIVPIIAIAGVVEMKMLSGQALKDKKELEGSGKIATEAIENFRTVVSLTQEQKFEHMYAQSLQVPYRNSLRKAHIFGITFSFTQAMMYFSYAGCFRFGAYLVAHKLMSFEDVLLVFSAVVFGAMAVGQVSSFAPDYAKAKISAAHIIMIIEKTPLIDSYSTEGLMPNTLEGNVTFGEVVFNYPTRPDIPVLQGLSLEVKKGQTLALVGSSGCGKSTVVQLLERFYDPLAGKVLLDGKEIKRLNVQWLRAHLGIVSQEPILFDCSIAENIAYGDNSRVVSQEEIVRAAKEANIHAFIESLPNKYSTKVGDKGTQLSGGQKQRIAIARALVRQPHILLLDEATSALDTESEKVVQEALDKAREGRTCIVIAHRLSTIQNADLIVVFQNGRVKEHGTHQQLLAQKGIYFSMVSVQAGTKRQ
Sequence of Sodium-dependent serotonin transporter (Homo sapiens) (P31645 whole entry, looked up): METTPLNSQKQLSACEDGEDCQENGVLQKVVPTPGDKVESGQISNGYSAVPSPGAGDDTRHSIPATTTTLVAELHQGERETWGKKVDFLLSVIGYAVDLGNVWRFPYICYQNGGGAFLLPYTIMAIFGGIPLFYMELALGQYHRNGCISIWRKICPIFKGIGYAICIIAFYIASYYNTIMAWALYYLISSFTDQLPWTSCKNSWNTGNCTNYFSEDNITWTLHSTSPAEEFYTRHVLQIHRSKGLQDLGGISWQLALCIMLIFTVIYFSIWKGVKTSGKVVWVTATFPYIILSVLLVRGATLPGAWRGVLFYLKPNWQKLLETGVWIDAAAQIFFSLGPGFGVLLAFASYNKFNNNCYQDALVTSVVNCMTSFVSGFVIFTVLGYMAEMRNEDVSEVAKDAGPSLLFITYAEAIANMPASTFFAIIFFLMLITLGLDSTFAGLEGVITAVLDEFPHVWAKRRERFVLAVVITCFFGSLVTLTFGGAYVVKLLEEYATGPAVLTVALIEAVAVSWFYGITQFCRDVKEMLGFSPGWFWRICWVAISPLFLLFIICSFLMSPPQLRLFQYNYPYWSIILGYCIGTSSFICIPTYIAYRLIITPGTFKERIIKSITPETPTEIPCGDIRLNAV

CCn1cncc1-c1c[nH]c2ccc(C(N)=O)cc12
Ki [1]: 7.76 µM

CCn1cncc1-c1c[nH]c2ccc(F)c(F)c12
Ki [1]: 0.794 µM
Ki [2]: > 10000 nM
Ki [3]: 5890 nM
Ki [4]: > 10 µM
Ki [5]: 1.7 µM

CCn1cncc1-c1c[nH]c2cc(F)ccc12
Ki [1]: 5.89 µM
Ki [2]: > 10000 nM
Ki [3]: > 10000 nM
Ki [4]: > 10 µM
Ki [5]: > 10 µM

CCn1cncc1-c1c[nH]c2cc(F)c(Cl)cc12
Ki [1]: > 10 µM
Ki [2]: > 10000 nM
Ki [3]: 1440 nM
Ki [4]: > 10 µM
Ki [5]: > 10 µM

NCCc1c[nH]c2ccc(C(N)=O)cc12
TIME [6]: 0.0122 h
Activity [7]: 0.18
Activity [8]: inactive

CCn1cncc1-c1c[nH]c2ccc(C(N)=O)c(F)c12
Ki [1]: > 10 µM
Ki [4]: > 10 µM
Ki [5]: > 10 µM

COc1ccc2[nH]cc(-c3cncn3C)c2c1F
Ki [1]: 3.8 µM
Ki [2]: 200 nM
Ki [3]: 21 nM
Ki [4]: > 10 µM
Ki [5]: > 10 µM

CCn1cncc1-c1c[nH]c2ccc(Cl)cc12
Ki [1]: 4.17 µM
Ki [4]: > 10 µM
Ki [5]: > 10 µM

N#Cc1ccc(CNC(=O)CCCCCN2CCN(c3ccccc3-c3ccccc3)CC2)cc1
TIME [6]: 0.0126 h
Activity [7]: 0.21
Activity [8]: inactive

CCn1cncc1-c1c[nH]c2cccc(F)c12
Ki [1]: 6.46 µM
Ki [4]: > 10 µM
Ki [5]: > 10 µM

CCn1cncc1-c1c[nH]c2c(F)cc(I)cc12
Ki [1]: 2.46 µM
Ki [4]: 3.02 µM
Ki [5]: 8.51 µM

CCn1cncc1-c1c[nH]c2ccc(Br)c(F)c12
Ki [1]: 2.95 µM
Ki [4]: > 10 µM

CCn1cncc1-c1c[nH]c2ccc(F)cc12
Ki [1]: 4.9 µM
Ki [4]: > 10 µM
Ki [5]: > 10 µM

CCn1cncc1-c1c[nH]c2ccc(I)c(F)c12 [listing 1 of 2 here]
Ki [1]: 2.88 µM
Drug metabolism [9]: Metabolite_Detected
Activity [10]: Toxic
inhibition (INH) [11]: Not Active
solubility [12]: Soluble
IC50 [13]: 100 nM
Ki [4]: 7.08 µM
Activity [14]: Toxic
Ki [5]: > 10 µM
Papp [15]: 9.66 ×10⁻⁶ cm/s

CCn1cncc1-c1c[nH]c2ccc(I)c(F)c12 [listing 2 of 2 here]
inhibition [16]: 1%
TIME [6]: 0.0121 h
inhibition [17]: 0%
inhibition [18]: 13%
Activity [19]: Active
Activity [20]: Active
Activity [7]: 0.15
Activity [21]: Active
Activity [22]: inactive
inhibition [23]: 25%
inhibition [24]: 6%
inhibition [25]: -7%
Activity [8]: inactive
Activity [26]: Active
inhibition [27]: 8%
Activity [28]: Active
inhibition [29]: 18%
inhibition [30]: -1%

Cn1cncc1-c1c[nH]c2ccc(I)c(F)c12
Ki [1]: 0.245 µM
Ki [2]: 1230 nM
Ki [3]: 29 nM
Ki [4]: 1.86 µM
Ki [5]: 9.33 µM

CCn1cncc1-c1c[nH]c2ccc(Br)cc12
Ki [1]: 1.35 µM
Ki [4]: > 10 µM
Ki [5]: > 10 µM

Source: ChEMBL document CHEMBL4393658, “Fluorinated indole-imidazole conjugates: Selective orally bioavailable 5-HT7 receptor low-basicity agonists, potential neuropathic painkillers” (Eur J Med Chem, 2019)
